The results in this text go back to patent US7098204B2 (C.N.R.S., priority 1999, dated 2006).

In brackets after ≈: the same amount, converted by molar mass.

Assay [1] has as its system ovary, OVCAR-3. The experiment in a line: Human cancer cell line OVCAR-3 proliferation. It is filed as cell-based.
Assay [2] concerns the target topoisomerase II α (Homo sapiens, UniProt P11388). The assay is described as follows: topoisomerase II α assay. The class given is biochemical. The conditions noted are these: −(x) = no effect at the highest dose tested (in parentheses). Here is the method: Enzyme activities were assayed as described in the Experimental Procedures section, in the presence of increasing HD concentrations. IC50's were calculated from the dose-response curves.−, no effect at the highest dose tested (in parentheses).

For assay [3], the system named is casein kinase 1. The experiment in a line: In vitro phosphorylation of presenilin-2-MBP by casein kinase 1. The class given is biochemical. The conditions noted are these: presenilin-2-MBP substrate, autoradiography. Here is the method:
The large hydrophilic loop of presenilin-2 between transmembrane domains 6 and 7 was expressed in E. coli as a presseilin-2 loop—maltose-binding protein (MBP) fusion protein [25]. Following affinity chromatography purification presenilin-2-MBP was used as a substrate for CK1. After 30 min incubation in the presence of various HD concentrations, the kinase reaction was stopped by addition of Laemmli sample buffer. MBP-presenilin-2 was resolved by SDS-PAGE and its phosphorylation level visualised by autoradiography.

For assay [4], the target named is T1, erk1 (Homo sapiens, UniProt P27361).
T1 construct: His
T1 sequence (P27361 whole entry, species assumed): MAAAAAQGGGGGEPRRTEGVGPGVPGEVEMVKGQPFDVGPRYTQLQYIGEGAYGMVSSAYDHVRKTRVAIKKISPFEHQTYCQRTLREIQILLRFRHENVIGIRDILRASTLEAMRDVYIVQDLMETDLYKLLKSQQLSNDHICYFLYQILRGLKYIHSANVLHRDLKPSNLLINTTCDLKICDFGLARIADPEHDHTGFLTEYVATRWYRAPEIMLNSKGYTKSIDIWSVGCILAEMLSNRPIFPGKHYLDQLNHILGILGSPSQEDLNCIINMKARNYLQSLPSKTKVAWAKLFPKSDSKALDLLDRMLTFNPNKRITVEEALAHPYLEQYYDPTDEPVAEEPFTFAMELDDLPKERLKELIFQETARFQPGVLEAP
The assay is described as follows: erk1 kinase assay. The class given is biochemical. The conditions noted are these: 15 μM ATP.
Experimental: Blank values were subtracted and activities calculated as pmoles of phosphate incorporated for a 10 min. incubation (usually expressed in % of the maximal activity, i.e. without inhibitors). Controls were performed with appropriate dilutions of Me2SO. In some cases phosphorylation of the substrate was assessed by autoradiography after SDS-PAGE. […] ATP (3,000 Ci/mmol; 1 mCi/ml) in a final volume of 30 μl. After 10 min. incubation at 30° C., 25 μl aliquots of supernatant were spotted onto 2.5×3 cm pieces of Whatman P81 phosphocellulose paper, and, 20 sec. later, the filters were washed five times (for at least 5 min. each time) in a solution of 10 ml phosphoric acid/liter of water. […] ATP (3,000 Ci/mmol; 1 mCi/ml) in a final volume of 30 μl. […] Its activity was assayed in buffer C as described for CDK1/cyclin B. • CDK2/cyclin A, CDK2/cyclin E, CDK3/cyclin E, CDK4/cyclin D1, CDK6/cyclin D2, His-tagged erk1 and erk2, protein kinase C isoforms, the catalytic subunit of cAMP-dependent protein kinase, cGMP-dependent protein kinase, Myosin light chain kinase, casein kinases 1 & 2, ASK-γ (a plant homologue of GSK-3), insulin receptor tyrosine kinase domain (CIRK-41), c-raf, MAPKK, c-jun N terminal kinase (obtained from Promega), c-src kinase and v-abl kinase were assayed as described [15].

The subject of assay [5] is CDK1/cyclin B. The experiment in a line: Cyclin B release from immobilised CDK1/cyclin B, Western blot. It is filed as binding, starfish. The conditions noted are these: high HD concentrations, 30 min., beads washed. On the procedure: Proteins bound to p9^CKShs1-Sepharose beads (starfish CDK1/cyclin B) were denatured with 2× Laemmli sample buffer. Samples were run on 10% SDS-polyacrylamide gels. Proteins were transferred from the gel to a 0.1 μm nitrocellulose sheet in a milliblot-SDE system (Millipore) for 30 min. at 2.5 mA/cm^2 in transfer buffer. Subsequently, the filter was blocked with 5% low fat milk in TBST for 1 hour. The filter was then washed with TBST and incubated for 1 hour with the first antibodies (anti-PSTAIRE, 1:2000; anti-cyclin B, 1:1000). After 4 washes (1×20 min., 3×5 min.) with TBST, the nitrocellulose sheet was treated for 1 hour with horseradish peroxidase-coupled secondary antibodies diluted in TBST (1:1000). The filter was then washed 5 times (1×20 min., 4×5 min.) with TBST and analysed by enhanced chemioluminescence with ECL detection reagents and hyperfilm MP.
To investigate the mechanism of HD action, kinetic experiments were performed by varying both ATP levels and HD concentrations (FIG. 6A). […] Enzyme activities were assayed as described under the Experimental Procedures section. Results illustrated by FIG. 6A: 1/v vs 1/ATP primary plot. ATP concentrations in the reaction mixture varied from 0.05 to 0.25 mM, concentration of histone H1 was kept constant at 0.7 mg/ml. […] Apparent inhibition constant (Ki) is indicated by an arrow.
(A western blot detects proteins with antibodies after separation by electrophoresis.)

Assay [6] addresses T2, Insulin receptor tyrosine Kinase (Homo sapiens, UniProt P06213).
T2 construct: insulin receptor tyrosine kinase domain (CIRK-41)
The assay is described as follows: insulin receptor tyrosine kinase assay. The conditions noted are these: 15 μM ATP. It is filed as biochemical. Here is the method: Kinases activities were assayed in Buffer A or C (unless otherwise stated), at 30° C., at a final ATP concentration of 15 μM. Blank values were subtracted and activities calculated as pmoles of phosphate incorporated for a 10 min. incubation (usually expressed in % of the maximal activity, i.e. without inhibitors). Controls were performed with appropriate dilutions of Me2SO. In some cases phosphorylation of the substrate was assessed by autoradiography after SDS-PAGE. IC50 values were estimated from the dose-response curves. • CDK1/cyclin B was extracted in homogenisation buffer from M phase starfish (Marthasterias glacialis) oocytes and purified by affinity chromatography on p9^CKShs1-Sepharose beads, from which it was eluted by free p9^CKShs1 as described. The kinase activity was assayed in buffer C, with 1 mg histone H1/ml, in the presence of 15 μM [γ-^32P] ATP (3,000 Ci/mmol; 1 mCi/ml) in a final volume of 30 μl. After 10 min. incubation at 30° C., 25 μl aliquots of supernatant were spotted onto 2.5×3 cm pieces of Whatman P81 phosphocellulose paper, and, 20 sec. later, the filters were washed five times (for at least 5 min. each time) in a solution of 10 ml phosphoric acid/liter of water. The wet filters were counted in the presence of 1 ml ACS (Amersham) scintillation fluid. • GSK-3β was either purified from rabbit muscle or expressed in and purified from insect Sf9 cells. […]

T2 sequence (P06213 1023-1298 limits assumed): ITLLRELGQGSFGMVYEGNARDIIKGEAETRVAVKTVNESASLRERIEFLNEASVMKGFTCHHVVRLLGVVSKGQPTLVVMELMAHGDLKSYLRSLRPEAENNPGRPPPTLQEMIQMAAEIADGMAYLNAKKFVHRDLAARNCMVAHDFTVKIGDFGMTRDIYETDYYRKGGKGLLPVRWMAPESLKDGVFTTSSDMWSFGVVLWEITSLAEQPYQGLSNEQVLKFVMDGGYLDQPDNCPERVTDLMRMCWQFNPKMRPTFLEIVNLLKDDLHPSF
Sequence of topoisomerase II α (P11388 whole entry): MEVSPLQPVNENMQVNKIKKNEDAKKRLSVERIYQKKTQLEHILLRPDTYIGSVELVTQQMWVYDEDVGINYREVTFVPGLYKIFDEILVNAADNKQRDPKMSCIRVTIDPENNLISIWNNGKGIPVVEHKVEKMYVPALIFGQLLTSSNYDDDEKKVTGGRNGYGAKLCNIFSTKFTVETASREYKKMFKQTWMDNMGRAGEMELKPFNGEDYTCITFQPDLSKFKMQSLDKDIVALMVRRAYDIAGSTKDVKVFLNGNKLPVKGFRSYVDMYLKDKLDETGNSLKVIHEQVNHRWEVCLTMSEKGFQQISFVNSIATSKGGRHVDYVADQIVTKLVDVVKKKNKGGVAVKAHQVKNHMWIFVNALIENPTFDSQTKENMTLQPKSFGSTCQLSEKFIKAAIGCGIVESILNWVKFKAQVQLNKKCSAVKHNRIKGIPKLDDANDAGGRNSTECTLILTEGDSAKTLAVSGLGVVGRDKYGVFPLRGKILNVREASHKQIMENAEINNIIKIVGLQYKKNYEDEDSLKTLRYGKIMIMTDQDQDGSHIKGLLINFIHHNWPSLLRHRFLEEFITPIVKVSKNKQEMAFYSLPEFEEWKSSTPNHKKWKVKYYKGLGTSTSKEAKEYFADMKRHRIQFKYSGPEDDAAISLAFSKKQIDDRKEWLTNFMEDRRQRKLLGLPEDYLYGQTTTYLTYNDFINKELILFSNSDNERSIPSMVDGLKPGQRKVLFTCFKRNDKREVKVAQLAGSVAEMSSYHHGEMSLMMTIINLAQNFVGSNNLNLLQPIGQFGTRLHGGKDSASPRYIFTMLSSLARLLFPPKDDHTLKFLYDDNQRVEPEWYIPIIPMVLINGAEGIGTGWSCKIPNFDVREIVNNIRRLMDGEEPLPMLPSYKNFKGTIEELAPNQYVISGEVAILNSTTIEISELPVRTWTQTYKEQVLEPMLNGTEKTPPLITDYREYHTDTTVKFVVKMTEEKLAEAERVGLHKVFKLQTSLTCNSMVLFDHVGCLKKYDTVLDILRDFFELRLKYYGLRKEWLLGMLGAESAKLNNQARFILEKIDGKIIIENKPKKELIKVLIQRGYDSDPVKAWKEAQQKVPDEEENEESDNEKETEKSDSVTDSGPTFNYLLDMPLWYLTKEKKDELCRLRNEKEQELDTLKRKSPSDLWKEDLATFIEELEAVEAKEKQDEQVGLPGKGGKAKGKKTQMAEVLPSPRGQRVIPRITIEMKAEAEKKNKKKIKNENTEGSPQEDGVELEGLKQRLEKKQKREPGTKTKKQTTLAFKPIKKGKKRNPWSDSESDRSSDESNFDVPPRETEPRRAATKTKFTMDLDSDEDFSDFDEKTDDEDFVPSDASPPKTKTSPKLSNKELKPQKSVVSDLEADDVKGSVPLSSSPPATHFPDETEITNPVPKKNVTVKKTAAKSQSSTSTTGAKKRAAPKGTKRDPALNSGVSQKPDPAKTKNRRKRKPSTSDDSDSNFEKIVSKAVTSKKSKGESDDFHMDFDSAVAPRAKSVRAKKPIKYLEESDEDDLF

A word on the IC50: it is the concentration that gives 50% inhibition. Turning to `NC1=NC(=O)C(=C2CCNC(=O)c3[nH]c(Br)cc32)N1` [hymenialdisine, 4-(2-amino-4-oxo-2-imidazolin-5-ylidene)-2-bromo-4,5,6,7-tetrahydropyrrolo (2,3-c) azepine-8-one], the IC50 in assay [1] is 1.8 µg/mL (≈ 5.55 µM); in assay [2], greater than 10 µM; in assay [4], 0.47 µM; in assay [6] it was 75 µM. In addition, the “presenilin-2 phosphorylation by CK1” value in assay [3] was “dose-dependent inhibition of presenilin-2 phosphorylation”. The “displacement of cyclin B from CDK1” value in assay [5] is “does not act by displacing cyclin B from CDK1”.
